pEC50: −log10 of the molar value. Like-named read-outs stand apart in the source and are kept apart here.

One assay has as its system HIV mutant strain Y181C. In words: Cell-based assay using BH-10 cells, Y181C mutant. As for the experimental part:
(§1) In a typical embodiment, the NNRTIs display an EC50 in a mutant HIV strain of less than approximately 5, 2.5, 1 or 0.1 μM concentration. The degree of cross-resistance against a drug resistant strain of HIV is measured by assessing the EC50 of the desired oxo-pyrimidine compound in the target mutated, i.e., drug resistant, virus.
(§2) The degree of cross-resistance against a drug resistant strain of HIV can easily be measured by assessing the EC50 of the desired indole in the target mutated i.e., drug resistant, virus.

The subject of another assay is HIV BH-10 WT. In words: Cell-based assay using BH-10 cells, wild type.
The subject of assay [1] is HIV mutant strain K103N/Y181C. In words: Cell-based assay using BH-10 cells, K103N/Y181C mutant. As for the experimental part:
as §1, §2

Where [2] appears, read: BH-10 cells, Y181C mutant, read-out: EC50 Y181C.
Setting [3] is: BH-10 cells, wild type, read-out: EC50 WT///B.
[4] abbreviates: BH-10 cells, K103N/Y181C mutant, read-out: EC50 K103N/Y181C.
[5] abbreviates: Human immunodeficiency virus 1, read-out: EC50 Y181C, BH-10 cells, Y181C mutant.
Where [6] appears, read: Human immunodeficiency virus 1, read-out: EC50 WT///B, BH-10 cells, wild type.
[7] abbreviates: Human immunodeficiency virus 1, read-out: EC50 K103N/Y181C, BH-10 cells, K103N/Y181C mutant.

For `COc1ccccc1P(=O)(OC)c1c(C(N)=O)[nH]c2ccc(Cl)cc12` (stereo not drawn) [Compound 7n], the pEC50 is 7.18 with HIV mutant strain Y181C (setting [2]), 8.77 with HIV BH-10 WT (setting [3]) and 8.82 in assay [1] (setting [4]).
Turning to `COP(=O)(c1cc(F)cc(C(F)(F)F)c1)c1c(C(N)=O)[nH]c2ccc(Cl)cc12` (stereo not drawn) [Compound 7q], the pEC50 in the assay on HIV mutant strain Y181C (setting [5]) was 7.78; with HIV BH-10 WT (setting [6]) it was 8.96; in assay [1] (setting [7]), 8.54.
In the case of `COP(=O)(c1cc(C(F)(F)F)cc(C(F)(F)F)c1)c1c(C(N)=O)[nH]c2ccc(Cl)cc12` (stereo not drawn) [Compound 7s], the pEC50 was 7.17 in the assay on HIV mutant strain Y181C (setting [5]), 7.89 in the assay with HIV BH-10 WT (setting [6]) and 7.32 in assay [1] (setting [7]).
As to `COP(=O)(c1cccc2ccccc12)c1c(C(N)=O)[nH]c2ccc(Cl)cc12` (stereo not drawn) [Compound 7t], the values for the pEC50 (in the assay on HIV mutant strain Y181C (setting [5]); in the assay with HIV BH-10 WT (setting [6]); in assay [1] (setting [7])) were 8.24, 9.22 and 8.59, respectively.
On to `COP(=O)(c1cc(F)cc(Cl)c1)c1c(C(N)=O)[nH]c2ccc(Cl)cc12` (stereo not drawn) [Compound 7v], for which the pEC50 with HIV mutant strain Y181C (setting [5]) is 7.83; with HIV BH-10 WT (setting [6]), 9.10; in assay [1] (setting [7]), 8.64.
With `CCc1cc(C)cc(P(=O)(OC)c2c(C(N)=O)[nH]c3ccc(Cl)cc23)c1` (stereo not drawn) [Compound 7w], the results for the pEC50 (with HIV mutant strain Y181C (setting [5]); with HIV BH-10 WT (setting [6]); in assay [1] (setting [7])) were 8.26, 9.40 and 8.92, respectively.
Take `CCCc1cccc(P(=O)(OC)c2c(C(N)=O)[nH]c3ccc(Cl)cc23)c1` (stereo not drawn) [Compound 7x]: the values for the pEC50 (in the assay with HIV mutant strain Y181C (setting [5]); in the assay on HIV BH-10 WT (setting [6]); in assay [1] (setting [7])) were 7.86, 8.52 and 8.06, respectively.
In the case of `COP(=O)(c1cc(C)cc(C)c1)c1c(C(N)=O)[nH]c2ccc(Cl)c(F)c12` (stereo not drawn) [Compound 7z], the results for the pEC50 (in the assay with HIV mutant strain Y181C (setting [5]); in the assay on HIV BH-10 WT (setting [6]); in assay [1] (setting [7])) were 8.07, 8.68 and 8.66, respectively.
With `COP(=O)(c1cccc(C)c1)c1c(C(=O)NCc2ccncc2)[nH]c2ccc(Cl)cc12` (stereo not drawn) [Compound 18a], the pEC50 in the assay on HIV mutant strain Y181C (setting [5]) is 8.00; with HIV BH-10 WT (setting [6]), 9.00; in assay [1] (setting [7]), 8.51.
Turning to `COP(=O)(c1cc(C)cc(C)c1)c1c(C(=O)NCc2cncn2C)[nH]c2ccc(Cl)cc12` (stereo not drawn) [Compound 18aaa], the pEC50 in the assay on HIV mutant strain Y181C (setting [5]) was 8.19; in the assay on HIV BH-10 WT (setting [6]) it was 8.49; in assay [1] (setting [7]), 8.48.
For the compound `COP(=O)(c1ccccc1)c1c(C(=O)NCc2ccccc2F)[nH]c2ccc(Cl)cc12` (stereo not drawn) [Compound 18aab], the pEC50 in the assay with HIV mutant strain Y181C (setting [5]) was 7.47; in the assay on HIV BH-10 WT (setting [6]) it was 8.42; in assay [1] (setting [7]), 7.99.
Turning to `COP(=O)(c1ccccc1)c1c(C(=O)NCN2CCOCC2)[nH]c2ccc(Cl)cc12` (stereo not drawn) [Compound 18aac], the pEC50 in the assay on HIV mutant strain Y181C (setting [5]) is 8.00; in the assay on HIV BH-10 WT (setting [6]) it was 9.30; in assay [1] (setting [7]), 7.85.
Regarding `COP(=O)(c1cc(F)cc(F)c1)c1c(C(=O)NCc2ccccc2F)[nH]c2ccc(Cl)cc12` (stereo not drawn) [Compound 18aad], the pEC50 is 7.42 in the assay with HIV mutant strain Y181C (setting [5]), 7.96 in the assay with HIV BH-10 WT (setting [6]) and 7.90 in assay [1] (setting [7]).
Regarding `COP(=O)(c1cc(F)cc(F)c1)c1c(C(=O)NCc2cncn2C)[nH]c2ccc(Cl)cc12` (stereo not drawn) [Compound 18aae], the pEC50 in the assay on HIV mutant strain Y181C (setting [5]) was 7.98; in the assay on HIV BH-10 WT (setting [6]), 8.59; in assay [1] (setting [7]), 8.57.
Consider `COP(=O)(c1cc(C)cc(C#N)c1)c1c(C(=O)NCc2ccncc2)[nH]c2ccc(Cl)cc12` (stereo not drawn) [Compound 18aaf], for which the results for the pEC50 (with HIV mutant strain Y181C (setting [5]); in the assay with HIV BH-10 WT (setting [6]); in assay [1] (setting [7])) were 8.41, 8.74 and 8.96, respectively.
In the case of `COP(=O)(c1cc(C)cc(C#N)c1)c1c(C(=O)NCc2cncn2C)[nH]c2ccc(Cl)cc12` (stereo not drawn) [Compound 18aag], the pEC50 in the assay with HIV mutant strain Y181C (setting [5]) is 7.73; in the assay with HIV BH-10 WT (setting [6]), 8.51; in assay [1] (setting [7]) it was 8.54.
Take `COP(=O)(c1cc(C)cc(C)c1)c1c(C(=O)NCc2c(F)cccc2F)[nH]c2ccc(Cl)cc12` (stereo not drawn) [Compound 18aah]: the values for the pEC50 (in the assay with HIV mutant strain Y181C (setting [2]); in the assay with HIV BH-10 WT (setting [3]); in assay [1] (setting [4])) were 7.64, 8.15 and 7.77, respectively.
Taken in the same sequence, the figures for `COP(=O)(c1cc(C)cc(C)c1)c1c(C(=O)NCc2cc(F)ccc2F)[nH]c2ccc(Cl)cc12` (stereo not drawn) [Compound 18aai] were 7.81, 8.44 and 7.74.

The values above are taken from patent US7534809B2, “Phospho-indoles as HIV inhibitors” (priority 2004, dated 2009).
